The results in this text go back to publication PMC6315694, “Synthesis of Pseudellone Analogs and Characterization as Novel T-type Calcium Channel Blockers” (Marine Drugs, 2018).

Type in all cases: cell-based
The target in assay [1] is CaV3.2 (Homo sapiens, UniProt O95180). In words: T-type calcium channel window current FLIPR assay, CaV3.2. Here is the method:
(§1) The human embryonic kidney 293 (HEK 293) cell lines (from Emmanuel Bourinet, Montpellier, France) stably expressing CaV3.2 or CaV3.3 were cultured under 5% carbon dioxide at 37 °C in Dulbecco’s Modified Eagle Medium (DMEM) Glutamax (Gibco, Life Technologies, Carlsbad, CA, USA) supplemented with 10% (v/v) fetal bovine serum (FBS), 100 U/mL penicillin, 100 μg/mL streptomycin (Gibco, Life Technologies), and 750 μg/mL geneticin (G418) (Gibco, Life Technologies). The Chinese Hamster Ovary (CHO) cell lines (Emmanuel Bourinet, Montpellier, France) expressing CaV3.1 were cultured under 5% carbon dioxide at 37 °C in Alpha Minimum Essential Media (MEM) Glutamax (Gibco, Life Technologies), supplemented with 10% (v/v) fetal bovine serum (FBS) and 300 μg/mL geneticin (G418) (Gibco, Life Technologies). The human neuroblastoma SH-SY5 Y cells (Victor Diaz, Goettingen, Germany) were cultured under 5% carbon dioxide at 37 °C in RPMI 1640 antibiotic-free medium (Invitrogen, Carlsbad, CA, USA), supplemented with 15% FBS and 2 mM GlutaMAX™ (Invitrogen). D-PBS (Gibco, Life Technologies) was used to wash the cells, and 0.25% Trypsin-EDTA (Gibco, Life Technologies) was used to detach cells from the flask surface. They were split in a ratio of 1:5 (ideally 1000 cells/cm^2) when they reached 70%–80% confluence (every 2–3 days). Transiently transfected CaV3.1HEK293 T cells were used in FLIPR Assays. HEK 293 T cells were cultured under 5% carbon dioxide at 37 °C in DMEM supplemented with 10% (v/v) FBS. D-PBS was used to wash the cells, and 0.25% Trypsin-EDTA was used to detach cells from the flask surface. The cells were split and seeded at 6 million cells per T175 flask, to reach 70%–80% confluence after 24 h. The next day, 12 μg DNA of human CaV3.1 was incubated in 900 μL serum-free DMEM with 36 μL FuGENE HD transfection reagent (Promega Corporation, Madison, WI, US) (1:3 DNA/Fugene ratio) for 20 min, and then the mixture was added into the cell flask slowly, drop by drop. After the transfection, the cells were cultured under 5% carbon dioxide at 37 °C for 24 h and then moved to a 28 °C incubator.
(§2) HEK 293 cells stably expressing CaV3.2 or CaV3.3 were seeded into 384-well black wall clear bottom plates (Corning, Lowell, MA, USA) at a density of 30,000 cells per well. Transiently transfected CaV3.1HEK293 T cells were seeded into 384-well black wall clear bottom plates at a density of 60,000 cells per well. Once the cells reached 90%–95% confluence after 24 h, the media were removed from the wells and replaced with 20 μL of 10% calcium 4 dye (Molecular Devices, Sunnyvale, CA, USA) in HBSS-HEPES (containing 5 mM KCl, 10 mM HEPES, 140 mM NaCl, 10 mM glucose, and 0.5 mM CaCl2, pH 7.4) with 0.1% bovine serum albumin (BSA). The cells were incubated for 30 min at 37 °C in the presence of 5% carbon dioxide. Each well on the reagent plates for the first addition contained 15 μL different concentrations of compounds dissolved in HBSS-HEPES containing 0.1% BSA and <0.1% DMSO and was incubated for 20 min after loading. Positive and negative controls contained 15 μL of HBSS-HEPES (0.1% BSA) alone. The plates were placed in the FLIPR^TETRA (Molecular Devices, Sunnyvale, CA, USA) programmed to measure maximum fluorescence intensity following a second addition of the agonist 5 mM CaCl2. The data acquisition parameters were adjusted as follows: Baseline fluorescence of 1500–2000 arbitrary fluorescence units (AFU), emission wavelength of 515–575 nm, and excitation wavelength of 470–495 nm. HBSS-HEPES (0.1% BSA) was used in the second addition as a negative control. One fluorescence reading was taken before the second addition. Then the fluorescence readings were recorded every two seconds for 300 s. Raw fluorescence readings in the form of relative light units were converted to response over baseline using ScreenWorks® (Molecular Devices, version 3.2.0.14) software.
(§3) Data were plotted and analyzed using GraphPad Prism v7.0 (GraphPad Software Inc., San Diego, CA, USA).

In assay [2] the target is CaV3.3 (Homo sapiens, UniProt Q9P0X4). The assay can be described thus: T-type calcium channel window current FLIPR assay, CaV3.3. As to the method: as §1, §2, §3
In assay [3] the target is T1, recombinant hCaV3.1 channels (Homo sapiens, UniProt O43497).
T1 construct: host or cells: probably the CHO line expressing CaV3.1 (inferred: the transient HEK293T cells are assigned to FLIPR)
The assay can be described thus: Whole-cell patch-clamp QPatch 16 X, CaV3.1. As to the method:
as §1, with “After the transfection, the cells were cultured under 5% carbon dioxide at 37 °C for 24 h and then moved to a 28 °C incubator.” left out
Data were plotted and analyzed using GraphPad Prism v7.0 (GraphPad Software Inc., San Diego, CA, USA). […]
For orientation: Patch clamp records ionic current or voltage across a cell membrane.

SMILES strings stand for the structures. Read-outs that look alike come from different tables or passages of the source.

T1 sequence (O43497 whole entry): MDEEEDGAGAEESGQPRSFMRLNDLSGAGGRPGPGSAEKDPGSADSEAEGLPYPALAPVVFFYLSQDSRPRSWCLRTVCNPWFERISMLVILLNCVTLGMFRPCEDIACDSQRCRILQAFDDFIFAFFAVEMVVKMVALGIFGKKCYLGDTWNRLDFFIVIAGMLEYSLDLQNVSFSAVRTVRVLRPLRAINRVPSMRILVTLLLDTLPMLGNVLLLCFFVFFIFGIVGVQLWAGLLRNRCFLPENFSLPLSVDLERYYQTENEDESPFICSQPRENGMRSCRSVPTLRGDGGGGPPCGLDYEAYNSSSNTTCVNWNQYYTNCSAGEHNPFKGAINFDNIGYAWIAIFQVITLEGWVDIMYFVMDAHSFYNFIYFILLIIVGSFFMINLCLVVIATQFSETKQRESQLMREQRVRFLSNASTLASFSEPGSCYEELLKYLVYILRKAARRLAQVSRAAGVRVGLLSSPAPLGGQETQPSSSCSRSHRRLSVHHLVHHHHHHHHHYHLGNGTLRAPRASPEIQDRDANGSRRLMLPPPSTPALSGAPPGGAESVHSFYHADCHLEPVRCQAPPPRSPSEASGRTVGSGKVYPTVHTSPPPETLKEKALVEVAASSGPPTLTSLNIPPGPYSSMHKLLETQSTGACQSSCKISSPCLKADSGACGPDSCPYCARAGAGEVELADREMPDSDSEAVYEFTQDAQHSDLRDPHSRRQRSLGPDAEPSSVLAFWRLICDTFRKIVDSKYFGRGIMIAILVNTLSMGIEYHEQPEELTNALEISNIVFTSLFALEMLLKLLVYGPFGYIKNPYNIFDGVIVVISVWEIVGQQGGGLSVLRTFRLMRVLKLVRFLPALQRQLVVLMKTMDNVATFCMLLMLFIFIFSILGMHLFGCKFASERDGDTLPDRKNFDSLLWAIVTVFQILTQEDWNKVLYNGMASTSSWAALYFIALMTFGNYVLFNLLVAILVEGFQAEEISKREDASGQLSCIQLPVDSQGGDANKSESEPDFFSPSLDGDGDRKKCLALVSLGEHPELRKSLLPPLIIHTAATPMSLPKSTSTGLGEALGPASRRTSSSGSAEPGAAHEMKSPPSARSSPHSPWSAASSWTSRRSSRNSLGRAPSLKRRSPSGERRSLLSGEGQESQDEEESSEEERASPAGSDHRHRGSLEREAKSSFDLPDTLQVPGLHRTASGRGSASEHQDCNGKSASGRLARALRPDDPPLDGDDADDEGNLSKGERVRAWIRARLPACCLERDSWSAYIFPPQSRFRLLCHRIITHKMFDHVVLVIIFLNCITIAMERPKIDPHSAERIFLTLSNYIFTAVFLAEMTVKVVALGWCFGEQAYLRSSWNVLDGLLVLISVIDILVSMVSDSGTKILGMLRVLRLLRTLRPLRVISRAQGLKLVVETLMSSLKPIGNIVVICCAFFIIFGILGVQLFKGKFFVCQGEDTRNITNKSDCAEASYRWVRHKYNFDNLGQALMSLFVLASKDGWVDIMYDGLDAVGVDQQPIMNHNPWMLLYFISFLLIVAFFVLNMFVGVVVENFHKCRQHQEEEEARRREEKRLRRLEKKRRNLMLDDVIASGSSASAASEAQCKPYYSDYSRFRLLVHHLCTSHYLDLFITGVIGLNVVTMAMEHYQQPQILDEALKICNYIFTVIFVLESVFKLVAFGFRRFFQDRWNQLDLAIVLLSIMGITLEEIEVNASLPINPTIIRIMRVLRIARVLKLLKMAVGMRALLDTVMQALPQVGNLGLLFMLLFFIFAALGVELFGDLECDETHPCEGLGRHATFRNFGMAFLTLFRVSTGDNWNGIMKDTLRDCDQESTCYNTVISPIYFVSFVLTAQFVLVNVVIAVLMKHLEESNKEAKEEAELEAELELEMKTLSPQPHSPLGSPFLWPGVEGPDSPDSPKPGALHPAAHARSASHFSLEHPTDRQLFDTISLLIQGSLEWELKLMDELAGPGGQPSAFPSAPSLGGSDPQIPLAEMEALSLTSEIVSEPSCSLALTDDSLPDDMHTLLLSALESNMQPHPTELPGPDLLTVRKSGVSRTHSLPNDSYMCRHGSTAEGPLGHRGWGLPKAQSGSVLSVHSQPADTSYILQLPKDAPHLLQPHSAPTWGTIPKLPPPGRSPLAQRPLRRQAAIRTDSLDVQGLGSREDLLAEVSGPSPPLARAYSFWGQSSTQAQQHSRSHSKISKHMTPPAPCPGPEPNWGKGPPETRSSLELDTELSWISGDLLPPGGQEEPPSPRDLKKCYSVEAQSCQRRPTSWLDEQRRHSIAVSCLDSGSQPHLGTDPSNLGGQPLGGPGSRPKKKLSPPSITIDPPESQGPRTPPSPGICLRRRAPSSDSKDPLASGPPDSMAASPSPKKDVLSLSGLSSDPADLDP
Sequence of CaV3.3 (Q9P0X4 whole entry): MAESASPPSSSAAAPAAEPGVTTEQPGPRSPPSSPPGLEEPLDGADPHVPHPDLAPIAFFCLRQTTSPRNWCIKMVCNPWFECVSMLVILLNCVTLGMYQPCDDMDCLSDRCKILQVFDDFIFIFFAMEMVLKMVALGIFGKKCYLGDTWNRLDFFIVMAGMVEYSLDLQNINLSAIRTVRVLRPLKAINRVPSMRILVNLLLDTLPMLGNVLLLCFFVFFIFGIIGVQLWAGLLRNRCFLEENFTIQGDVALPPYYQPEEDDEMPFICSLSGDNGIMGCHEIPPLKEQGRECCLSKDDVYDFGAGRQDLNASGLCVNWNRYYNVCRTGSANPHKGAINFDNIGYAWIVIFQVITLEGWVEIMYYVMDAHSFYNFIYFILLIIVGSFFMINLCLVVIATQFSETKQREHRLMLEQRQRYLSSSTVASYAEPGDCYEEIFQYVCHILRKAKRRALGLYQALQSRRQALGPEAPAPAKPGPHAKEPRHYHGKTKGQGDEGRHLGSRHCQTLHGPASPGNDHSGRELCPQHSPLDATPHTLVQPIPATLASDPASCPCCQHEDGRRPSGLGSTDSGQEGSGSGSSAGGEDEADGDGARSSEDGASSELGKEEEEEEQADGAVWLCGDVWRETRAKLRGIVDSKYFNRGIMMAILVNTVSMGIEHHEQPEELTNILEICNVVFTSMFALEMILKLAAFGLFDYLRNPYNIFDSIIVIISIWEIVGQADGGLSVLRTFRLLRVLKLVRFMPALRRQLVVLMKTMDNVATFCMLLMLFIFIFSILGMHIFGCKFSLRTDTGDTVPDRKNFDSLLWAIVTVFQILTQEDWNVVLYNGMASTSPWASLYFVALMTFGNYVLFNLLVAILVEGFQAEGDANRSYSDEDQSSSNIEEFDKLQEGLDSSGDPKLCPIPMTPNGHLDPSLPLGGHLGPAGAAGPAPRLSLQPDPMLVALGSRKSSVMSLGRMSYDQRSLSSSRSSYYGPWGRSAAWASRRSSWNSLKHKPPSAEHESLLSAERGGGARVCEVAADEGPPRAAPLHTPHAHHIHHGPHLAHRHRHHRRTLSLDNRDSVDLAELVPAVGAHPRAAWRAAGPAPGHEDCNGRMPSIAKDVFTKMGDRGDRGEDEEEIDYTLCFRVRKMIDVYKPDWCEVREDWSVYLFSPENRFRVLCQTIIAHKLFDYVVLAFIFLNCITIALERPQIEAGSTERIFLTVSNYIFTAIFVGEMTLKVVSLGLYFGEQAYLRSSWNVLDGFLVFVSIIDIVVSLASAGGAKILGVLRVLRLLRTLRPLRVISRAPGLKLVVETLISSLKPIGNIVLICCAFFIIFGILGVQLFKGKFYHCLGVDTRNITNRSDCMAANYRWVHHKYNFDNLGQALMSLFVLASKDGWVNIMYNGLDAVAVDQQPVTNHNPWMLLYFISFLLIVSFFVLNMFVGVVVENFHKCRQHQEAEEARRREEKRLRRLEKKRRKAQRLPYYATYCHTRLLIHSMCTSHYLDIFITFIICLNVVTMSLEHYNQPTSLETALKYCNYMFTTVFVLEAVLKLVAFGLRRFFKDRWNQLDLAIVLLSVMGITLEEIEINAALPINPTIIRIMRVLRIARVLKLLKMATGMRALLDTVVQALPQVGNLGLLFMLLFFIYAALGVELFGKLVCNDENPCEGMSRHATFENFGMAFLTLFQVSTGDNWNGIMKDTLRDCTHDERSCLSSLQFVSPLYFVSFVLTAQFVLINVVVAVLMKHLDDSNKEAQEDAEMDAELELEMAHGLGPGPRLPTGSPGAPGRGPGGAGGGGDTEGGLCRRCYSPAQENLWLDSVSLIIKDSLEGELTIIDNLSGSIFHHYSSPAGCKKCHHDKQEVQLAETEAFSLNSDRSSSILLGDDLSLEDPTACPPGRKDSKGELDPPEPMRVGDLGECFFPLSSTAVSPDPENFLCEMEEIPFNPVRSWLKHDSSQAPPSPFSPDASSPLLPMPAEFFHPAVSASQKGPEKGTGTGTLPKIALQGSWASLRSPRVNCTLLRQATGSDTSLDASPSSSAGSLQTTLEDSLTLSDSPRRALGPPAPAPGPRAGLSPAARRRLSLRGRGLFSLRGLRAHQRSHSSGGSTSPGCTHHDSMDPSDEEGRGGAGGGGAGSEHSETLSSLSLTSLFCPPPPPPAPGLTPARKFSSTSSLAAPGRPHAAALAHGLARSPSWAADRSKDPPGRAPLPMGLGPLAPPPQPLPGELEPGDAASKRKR

The term Emax denotes the greatest response seen or fitted, relative to the assay's reference. On to `COC(=O)[C@H](Cc1c[nH]c2ccccc12)NC(=O)C(C)(c1c[nH]c2ccccc12)c1c[nH]c2ccccc12` [Compound 3, Methyl (2,2-di(1H-indol-3-yl)propanoyl)-L-tryptophanate], for which, in assay [1] (FLIPR), the “Kind of block of the CaV3.2 window current, in words” value was “potent partial blocking”. The IC50 in assay [1] (FLIPR window current assay, HEK 293 stable, N = 3, mean ± SEM, read-out: IC50 CaV3.2 (LVA CaVs)) came to 6.59 ± 0.66 µM; in assay [1] (FLIPR, representative curve, n = 4, read-out: IC50 of the representative concentration-response curve, CaV3.2 window current), 5.77 µM; in assay [2] (FLIPR window current assay, HEK 293 stable, N = 3, mean ± SEM, read-out: IC50 CaV3.3 (LVA CaVs)), 3.81 ± 1.08 µM; in assay [2] (FLIPR, representative curve, n = 4, read-out: IC50 of the representative concentration-response curve, CaV3.3 window current), 3.05 µM. Also, the Emax amounted to 56.9% in assay [1] (FLIPR, n = 3, read-out: Emax, inhibition for CaV3.2) and 82.8 ± 2.55% in assay [3] (QPatch whole-cell, partial block, read-out: Emax value, block of CaV3.1 current). The “Potency at CaV3.3 window current relative to potency at HVA CaVs” value in assay [2] (FLIPR, CaV3.3 better than HVA CaVs) was over 8 fold. Also, the “Potency for CaV3.1-activated currents relative to CaV3.1 window currents” value in assay [3] (QPatch versus FLIPR, better for activated currents) is on record as over 7 fold. Further, the “Voltage-dependence of steady-state inactivation of CaV3.1, in words” value in assay [3] (QPatch, in the presence of compound) was “not significantly shifted”.
